Laboratory results from US10526316B2, “Quinoxaline and pyridopyrazine derivatives as PI3Kβ inhibitors” (Janssen Pharmaceutica NV, priority 2015, dated 2020).
Like-named read-outs stand apart in the source and are kept apart here.

Key:
PI3Kβ = molecular target: T1, PI3Kβ (Homo sapiens, UniProt P42338); assay: Enzyme binding assay (KINOMEscan, DiscoveRx); settings: PIK3Cβ_h, read-out: Kd PIK3Cβ_h
T1 construct: purchased DiscoveRx Corporation, San Diego (contract service, KINOMEscan)
Summary of the method: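 Compounds are profiled for binding to the kinase using KINOMEscan. The affinity is then reported as an inhibitor Kd in nanomolar units.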

PI3Kδ = molecular target: T2, PI3Kδ (Homo sapiens, UniProt O00329); assay: Enzyme binding assay (KINOMEscan, DiscoveRx); settings: PIK3Cδ_h
T2 construct: purchased DiscoveRx Corporation, San Diego (contract service, KINOMEscan)
T2 sequence (O00329 1-1044): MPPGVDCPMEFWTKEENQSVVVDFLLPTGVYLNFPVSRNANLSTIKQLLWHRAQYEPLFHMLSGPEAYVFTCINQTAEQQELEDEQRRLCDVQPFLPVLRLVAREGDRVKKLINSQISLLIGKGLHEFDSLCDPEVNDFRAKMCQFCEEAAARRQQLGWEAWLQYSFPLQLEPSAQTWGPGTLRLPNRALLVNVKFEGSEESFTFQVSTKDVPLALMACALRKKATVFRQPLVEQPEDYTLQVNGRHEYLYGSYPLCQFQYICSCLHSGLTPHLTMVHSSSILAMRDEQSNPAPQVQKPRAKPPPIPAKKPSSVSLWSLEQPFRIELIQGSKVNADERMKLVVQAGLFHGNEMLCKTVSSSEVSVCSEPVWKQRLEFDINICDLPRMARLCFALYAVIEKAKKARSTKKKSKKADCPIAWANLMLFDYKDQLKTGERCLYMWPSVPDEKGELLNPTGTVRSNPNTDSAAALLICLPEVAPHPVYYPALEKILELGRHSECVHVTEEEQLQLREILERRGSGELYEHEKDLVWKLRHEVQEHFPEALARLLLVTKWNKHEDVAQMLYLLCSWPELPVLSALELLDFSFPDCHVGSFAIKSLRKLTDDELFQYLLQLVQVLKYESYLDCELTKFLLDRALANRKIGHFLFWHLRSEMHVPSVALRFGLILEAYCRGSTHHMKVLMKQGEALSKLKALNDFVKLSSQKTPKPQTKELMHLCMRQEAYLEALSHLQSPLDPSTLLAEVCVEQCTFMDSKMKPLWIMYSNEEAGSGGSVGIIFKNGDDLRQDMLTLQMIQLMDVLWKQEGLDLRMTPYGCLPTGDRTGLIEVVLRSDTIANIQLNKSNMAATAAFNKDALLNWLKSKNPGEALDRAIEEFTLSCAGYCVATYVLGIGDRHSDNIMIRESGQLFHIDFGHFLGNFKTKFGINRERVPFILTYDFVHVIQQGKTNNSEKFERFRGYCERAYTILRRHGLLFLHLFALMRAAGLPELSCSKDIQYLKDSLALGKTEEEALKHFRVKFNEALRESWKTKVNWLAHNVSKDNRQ
Summary of the method: (§1)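 Compounds were profiled by KINOMEscan to obtain kinase binding affinities.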

kinase enzymes [1] = molecular target: T3, kinase enzymes (Homo sapiens, UniProt P42336); assay: Enzyme binding assay (KINOMEscan, DiscoveRx), further kinases of Table A; settings: PIK3Cα_h
T3 construct: purchased DiscoveRx Corporation, San Diego (contract service, KINOMEscan)
T3 sequence (P42336 whole entry): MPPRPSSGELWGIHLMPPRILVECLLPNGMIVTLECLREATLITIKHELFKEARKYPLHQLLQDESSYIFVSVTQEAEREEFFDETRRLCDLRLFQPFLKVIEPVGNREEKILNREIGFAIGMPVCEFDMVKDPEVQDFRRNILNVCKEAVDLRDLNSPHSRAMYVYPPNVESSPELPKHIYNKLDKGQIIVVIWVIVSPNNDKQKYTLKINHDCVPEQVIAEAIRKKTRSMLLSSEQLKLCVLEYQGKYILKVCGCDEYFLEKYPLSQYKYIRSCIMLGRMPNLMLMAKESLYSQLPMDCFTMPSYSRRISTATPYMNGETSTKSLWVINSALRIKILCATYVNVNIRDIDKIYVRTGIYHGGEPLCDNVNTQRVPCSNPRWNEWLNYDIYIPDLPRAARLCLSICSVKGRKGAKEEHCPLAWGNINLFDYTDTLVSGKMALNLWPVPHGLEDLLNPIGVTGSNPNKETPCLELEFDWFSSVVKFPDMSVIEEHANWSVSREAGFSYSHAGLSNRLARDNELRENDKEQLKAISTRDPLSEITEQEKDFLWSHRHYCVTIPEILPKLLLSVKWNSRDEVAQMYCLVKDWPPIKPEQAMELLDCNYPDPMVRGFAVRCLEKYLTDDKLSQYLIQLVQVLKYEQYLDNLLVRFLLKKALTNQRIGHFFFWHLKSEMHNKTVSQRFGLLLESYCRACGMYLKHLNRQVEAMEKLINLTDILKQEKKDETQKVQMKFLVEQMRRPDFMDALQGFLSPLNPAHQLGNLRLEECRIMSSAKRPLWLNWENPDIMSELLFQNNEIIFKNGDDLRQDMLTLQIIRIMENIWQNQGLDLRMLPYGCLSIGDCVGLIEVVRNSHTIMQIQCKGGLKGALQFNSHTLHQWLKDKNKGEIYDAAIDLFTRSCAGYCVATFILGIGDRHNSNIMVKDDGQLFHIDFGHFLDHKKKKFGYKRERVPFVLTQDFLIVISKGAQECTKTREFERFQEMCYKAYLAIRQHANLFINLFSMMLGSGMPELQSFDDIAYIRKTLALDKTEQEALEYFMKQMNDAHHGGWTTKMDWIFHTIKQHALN
Summary of the method: as §1

kinase enzymes [2] = molecular target: T4, kinase enzymes (Homo sapiens, UniProt P42345); assay: as above; settings: MTOR_h
T4 construct: purchased DiscoveRx Corporation, San Diego (contract service, KINOMEscan)
Summary of the method: as §1

kinase enzymes [3] = molecular target: T5, kinase enzymes (Homo sapiens, UniProt P48736); assay: as above; settings: PIK3Cγ_h
T5 construct: purchased DiscoveRx Corporation, San Diego (contract service, KINOMEscan)
T5 sequence (P48736 whole entry): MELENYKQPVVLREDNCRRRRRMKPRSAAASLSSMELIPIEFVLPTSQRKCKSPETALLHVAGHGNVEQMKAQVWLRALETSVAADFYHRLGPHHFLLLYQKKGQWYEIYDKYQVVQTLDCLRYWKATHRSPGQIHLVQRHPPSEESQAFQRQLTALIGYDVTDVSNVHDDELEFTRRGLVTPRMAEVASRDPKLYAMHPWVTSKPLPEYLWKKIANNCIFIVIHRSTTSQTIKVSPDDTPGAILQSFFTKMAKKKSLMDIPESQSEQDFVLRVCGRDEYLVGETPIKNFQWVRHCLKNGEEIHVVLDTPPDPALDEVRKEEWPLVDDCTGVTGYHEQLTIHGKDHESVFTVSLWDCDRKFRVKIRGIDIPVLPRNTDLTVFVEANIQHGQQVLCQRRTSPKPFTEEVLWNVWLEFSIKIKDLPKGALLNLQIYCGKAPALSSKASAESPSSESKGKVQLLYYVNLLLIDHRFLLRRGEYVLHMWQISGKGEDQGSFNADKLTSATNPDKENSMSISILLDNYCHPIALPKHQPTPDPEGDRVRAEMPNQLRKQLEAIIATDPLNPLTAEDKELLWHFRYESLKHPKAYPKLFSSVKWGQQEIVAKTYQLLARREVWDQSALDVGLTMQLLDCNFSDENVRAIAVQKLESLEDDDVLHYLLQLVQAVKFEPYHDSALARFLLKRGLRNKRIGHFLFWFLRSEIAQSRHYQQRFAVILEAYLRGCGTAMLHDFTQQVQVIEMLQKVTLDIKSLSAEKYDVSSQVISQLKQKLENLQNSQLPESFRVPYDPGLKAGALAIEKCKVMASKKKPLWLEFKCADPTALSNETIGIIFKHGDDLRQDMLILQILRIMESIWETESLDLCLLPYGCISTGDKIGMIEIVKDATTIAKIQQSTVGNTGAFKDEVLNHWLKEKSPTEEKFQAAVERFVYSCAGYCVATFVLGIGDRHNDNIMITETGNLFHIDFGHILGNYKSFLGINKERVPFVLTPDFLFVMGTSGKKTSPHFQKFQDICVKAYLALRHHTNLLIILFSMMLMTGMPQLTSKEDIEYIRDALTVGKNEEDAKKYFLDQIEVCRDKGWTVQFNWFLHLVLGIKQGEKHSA
Summary of the method: as §1

[4] = test system: Akt phosphorylated at Ser473 in PC-3 cells; assay: Cellular assay: phosphorylation of Akt at Ser473 in PC-3 cells (MSD ELISA); type: cell-based; settings: PC-3 cells, 60 min compound incubation, MSD ELISA, read-out: IC50 pAkt_S473
Summary of the method: (§2)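 Electrochemiluminescent sandwich ELISA read-out: phospho-specific capture (Ser473 or Thr308), Sulfo-tag anti-total Akt detection, signal proportional to phospho-Akt. Cells treated 60 min at 37° C with compound, DMSO 0.3%. IC50 fitted from five concentrations.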

[5] = test system: Akt phosphorylated at Thr308 in PC-3 cells; assay: Cellular assay: phosphorylation of Akt at Thr308 in PC-3 cells (MSD ELISA); type: cell-based; settings: PC-3 cells, 60 min compound incubation, MSD ELISA, read-out: IC50 pAkt_Thr308
Summary of the method: as §2

T1 sequence (P42338 whole entry): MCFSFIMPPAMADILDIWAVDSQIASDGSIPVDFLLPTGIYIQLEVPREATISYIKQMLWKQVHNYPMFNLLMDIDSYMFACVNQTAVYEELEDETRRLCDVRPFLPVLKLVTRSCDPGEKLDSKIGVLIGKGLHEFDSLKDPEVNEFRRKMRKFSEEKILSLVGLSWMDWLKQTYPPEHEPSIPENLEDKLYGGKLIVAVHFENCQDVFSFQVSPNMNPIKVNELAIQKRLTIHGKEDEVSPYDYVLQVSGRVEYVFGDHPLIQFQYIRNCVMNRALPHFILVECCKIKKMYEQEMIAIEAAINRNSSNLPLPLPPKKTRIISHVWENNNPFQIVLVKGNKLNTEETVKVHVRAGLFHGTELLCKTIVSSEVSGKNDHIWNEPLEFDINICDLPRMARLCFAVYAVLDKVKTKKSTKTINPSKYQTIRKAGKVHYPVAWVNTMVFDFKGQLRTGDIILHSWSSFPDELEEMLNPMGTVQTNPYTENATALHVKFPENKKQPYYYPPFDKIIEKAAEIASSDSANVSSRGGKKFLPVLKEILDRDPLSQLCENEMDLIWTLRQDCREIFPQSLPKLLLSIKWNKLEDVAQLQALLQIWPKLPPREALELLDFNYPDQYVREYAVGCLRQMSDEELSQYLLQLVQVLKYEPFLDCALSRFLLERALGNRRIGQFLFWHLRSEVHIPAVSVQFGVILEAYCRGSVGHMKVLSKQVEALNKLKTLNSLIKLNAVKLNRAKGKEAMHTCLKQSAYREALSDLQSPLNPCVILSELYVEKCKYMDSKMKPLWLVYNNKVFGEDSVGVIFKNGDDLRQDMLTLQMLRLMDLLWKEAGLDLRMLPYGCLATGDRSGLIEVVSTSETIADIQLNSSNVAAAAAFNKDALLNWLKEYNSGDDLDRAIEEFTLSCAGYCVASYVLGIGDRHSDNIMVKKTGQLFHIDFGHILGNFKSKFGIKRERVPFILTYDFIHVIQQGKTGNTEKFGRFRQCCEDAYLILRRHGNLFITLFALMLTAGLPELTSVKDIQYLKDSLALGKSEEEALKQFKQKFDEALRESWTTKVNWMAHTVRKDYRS

SMILES	Kd (PI3Kβ)	Kd (PI3Kδ)	Kd (kinase enzymes [1])	Kd (kinase enzymes [2])	Kd (kinase enzymes [3])	IC50 ([4]; Homo sapiens, PC-3, 1 h)	IC50 ([5]; Homo sapiens, PC-3, 1 h)	melting point	IC50 [4]	IC50 [5]
CN(CCO)C(=O)c1cc(C2CCCN2c2cc(F)cc(F)c2)c2nc(N3CCOCC3)cnc2c1 (stereo not shown) [Compound 50]	0.2 nM	8 nM	11 nM	8910 nM	87 nM	1 nM	1 nM	80 °C	–	–
COc1cc(NC(C)c2cc(C(=O)N3CCOCC3)cc3ncc(N4CCOCC4)nc23)cc(OC)c1 (stereo not shown) [Compound 134]	87 nM	6310 nM	> 30200 nM	> 30200 nM	> 30200 nM	> 513 nM	> 513 nM	80 °C	–	–
CC(C)NCCNC(=O)c1cc(C(C)Nc2cc(F)cc(F)c2)c2nc(N3CCOCC3)cnc2c1 (single isomer, unassigned) [Compound 211]	1 nM	190 nM	3370 nM	20200 nM	3600 nM	–	–	206 °C	36 nM	22 nM
CNCCOCCN(C)C(=O)c1cc(C(C)Nc2cc(F)cc(F)c2)c2nc(N3CCOCC3)cnc2c1 (single isomer, unassigned) [Compound 174]	1200 nM	26300 nM	> 30200 nM	> 30200 nM	> 30200 nM	–	–	80 °C	> 513 nM	> 513 nM
COCCNC(=O)c1cc(C(C)Nc2cc(F)cc(F)c2)c2nc(N3CCOCC3)cnc2c1 (single isomer, unassigned) [Compound 203]	5 nM	912 nM	1660 nM	21400 nM	6610 nM	–	–	118 °C	98 nM	44 nM
Cc1cc(C2CCCN2c2cc(F)cc(F)c2)c2nc(N3CCOCC3)cnc2c1 (single isomer, unassigned) [Compound 106]	6 nM	1000 nM	3160 nM	> 30200 nM	3310 nM	–	–	80 °C	105 nM	62 nM
CC(Nc1cc(F)cc(F)c1)c1cc(C(=O)N(C)C)cc2ncc(N3CCOCC3)nc12 (single isomer, unassigned) [Compound 12]	0.4 nM	75 nM	276 nM	26300 nM	1140 nM	–	–	218 °C	18 nM	9 nM
CC(Nc1ccc(F)c(F)c1)c1cc(C(=O)N2CCN3CCC[C@H]3C2)cc2ncc(N3CCOCC3)nc12 (stereo partly shown) [Compound 287]	13 nM	977 nM	2690 nM	> 30200 nM	26300 nM	151 nM	48 nM	80 °C	–	–
O=C(O)c1cc(C2CCCN2c2cc(F)cc(F)c2)c2nc(N3CCOCC3)cnc2c1 (single isomer, unassigned) [Compound 251]	0.3 nM	23 nM	8 nM	676 nM	65 nM	52 nM	23 nM	299 °C	–	–
CNCCNC(=O)c1cc(C(C)Nc2cccc(F)c2)c2nc(N3CCOCC3)cnc2c1 (stereo not shown) [Compound 282]	0.2 nM	68 nM	832 nM	23400 nM	1820 nM	7 nM	6 nM	100 °C	–	–
Cc1c(F)cccc1CNc1cc(C(=O)NCCO)cc2ncc(N3CCOCC3)nc12 [Compound 336]	4 nM	871 nM	1950 nM	11000 nM	9120 nM	85 nM	46 nM	194 °C	–	–
